Measured values: US20240262835A1, “PRMT5 INHIBITING COMPOUNDS AND USES THEREOF” (ANTENGENE DISCOVERY LIMITED, priority 2023, published 2024)

What was measured:
[1] = Hepatic metabolic stability (HMS) assay, rat hepatocytes; conditions: rat, cryopreserved hepatocytes
Method: 1) 10 mM test compounds were provided.
(§1) 2) 30 mM positive control stock solutions: Dissolved accurate amount of positive control compounds in dimethyl sulfoxide (DMSO).
(§2) 3) 1000× Stock Solution: Diluted 10 mM test compounds and 30 mM positive control compounds to 1 mM and 3 mM with DMSO in 96-well plates.
(§3) 4) 100× Dosing Solution: Diluted 1 mM test compounds and 3 mM positive control compounds to 100 μM and 300 μM dosing solutions with ACN.
(§4) 5) Preparation of 0.5×10^6/mL cells suspension: cryopreserved cells were thawed, isolated and suspended in Incubation Medium, then diluted with pre-warmed Incubation Medium to 0.5×10^6 cells/mL.
(§5) 6) Add 198 μL of pre-warmed cell suspensions in 96-well plates.
(§6) 7) Preparation of Quenching Plate: Transfer 125 μL of stop solution in a set of pre-labeled 96-well plates.
(§7) 8) Spike 2 μL dosing solution to each well of 96-well plates in duplicate.
(§8) 9) For TO Samples, mix to achieve a homogenous suspension for about 1 min, then immediately transfer 25 μL of each sample into well containing 125 μL of ice-cold stop solution followed by mixing.
(§9) 10) Incubate all plates at 37° C. in a 95% humidified incubator at 5% CO2 to start the reactions with constant shaking.
(§10) 11) At 15, 30, 60 and 90 min, mix samples and then transfer 25 μL of each sample at each time point to well containing 125 μL of ice-cold stop solution followed by mixing.
(§11) 12) Medium Control (MC) sample plates (labeled as TO-MC and T90-MC) are prepared in the same way as cell incubation except that medium was used instead of cell suspension.
(§12) 13) At each corresponding time point, stop the reactions by removing the plates from incubator and mixing with 125 μL of ice-cold stop solution.
(§13) 14) Vortex the plates immediately on a plate shaker at 600 rpm for 10 minutes. Then, centrifuge all sample plates at 3220×g for 20 min at 4° C.
(§14) 15) After centrifugation, 80 μL/well of supernatant in the sample plates are transferred to another set of pre-labeled 96-well plates which containing 240 μL of ultra pure water according to the plate map.
(§15) 16) Analytical plates are sealed and store at 4° C. until LC-MS/MS analysis.
(§16) The remaining percents of test articles after incubation were calculated by the follow equations:
(§17) Use the following equation of first order kinetics to calculate T1/2 and CLint:

[2] = Hepatic metabolic stability (HMS) assay, dog hepatocytes; conditions: dog, cryopreserved hepatocytes
Method: 1) 10 mM test compounds were provided.
as §1, §2, §3, §4, §5, §6, §7, §8, §9, §10, §11, §12, §13, §14, §15, §16, §17

in vitro = conditions: rat, microsomes
[3] = Hepatic metabolic stability (HMS) assay, cynomolgus monkey hepatocytes; conditions: cynomolgus monkey, cryopreserved hepatocytes
Method: 1) 10 mM test compounds were provided.
as §1, §2, §3, §4, §5, §6, §7, §8, §9, §10, §11, §12, §13, §14, §15, §16, §17

CYP2C19 = CYP2C19 (Homo sapiens (Human), UniProt P33261); test: CYP isoforms inhibitory assay in human liver microsome, CYP2C19; type: in vitro ADME; conditions: substrate s-mephenytoin
Sequence of CYP2C19 (P33261 whole entry, canonical isoform): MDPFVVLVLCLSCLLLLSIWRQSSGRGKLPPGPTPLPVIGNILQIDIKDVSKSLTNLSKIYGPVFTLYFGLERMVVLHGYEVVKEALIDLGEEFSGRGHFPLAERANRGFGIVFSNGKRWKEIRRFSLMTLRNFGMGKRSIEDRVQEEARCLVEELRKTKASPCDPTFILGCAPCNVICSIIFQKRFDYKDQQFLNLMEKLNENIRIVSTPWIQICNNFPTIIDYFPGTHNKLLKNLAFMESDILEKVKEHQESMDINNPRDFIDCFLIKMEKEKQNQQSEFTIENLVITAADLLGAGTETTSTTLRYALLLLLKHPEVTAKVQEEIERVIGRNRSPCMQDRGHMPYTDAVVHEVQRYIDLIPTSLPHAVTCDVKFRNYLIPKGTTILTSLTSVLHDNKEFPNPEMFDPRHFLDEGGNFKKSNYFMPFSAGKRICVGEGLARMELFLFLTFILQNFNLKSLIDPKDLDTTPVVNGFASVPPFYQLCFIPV
Method: CYP isoforms inhibitory activities of test compounds were measured in human liver microsome.
Preparation details of these substrates are given in below table. The substrate stock solution was stored in a −20° C. freezer. Prior to use, the substrate stock solution was removed from the freezer and allowed to rise to room temperature. Then the substrate stock solution was mixed on a whirly mixer for 30 seconds.
HLMs were stored in a −80° C. freezer. Prior to use, the pooled HLM was removed from the freezer and allowed to thaw in a 37° C. water bath and then stored on wet ice.
The positive control inhibitors and their concentrations used by each isozyme are summarized below.
All samples were incubated in a 37° C. water bath, with three parallels for each concentration of the test compound and two parallels for each concentration of the positive control inhibitor. 100 μL of microsome working solution was taken and added 2 μL of the test product or positive inhibitor working solution. 2 μL solvents was added to the solvent control, and put in a water bath to pre-incubate for 10 min. After pre-incubation, 98 μL of NADPH regeneration solution was added to all samples to start the reaction. Then the mixture was put back in the water bath and incubated for a certain period of time.
The reaction was quenched by 200 μL stop solution. […]
IC50 values were determined using 3- or 4-parameter logistic equation.

[4] = tested on: cryopreserved hepatocytes
Method: 1) 10 mM test compounds were provided.
as §1, §2, §3, §4, §5, §6, §7, §8, §9, §10, §11, §12, §13, §14, §15, §16, §17

[5] = mouse, microsomes
[6] = tested on: cryopreserved hepatocytes; remark: listed apart in the source
Method: 1) 10 mM test compounds were provided.
as §1, §2, §3, §4, §5, §6, §7, §8, §9, §10, §11, §12, §13, §14, §15, §16, §17

[7] = Liver microsome metabolic stability (LMS) assay, human

Question: With `CN(C(=O)c1ccc2nc(N)c3cncn3c2c1)[C@@H]1COc2cc(C(F)(F)F)ccc21` [Compound 12] as the compound, how does the half-life at 1 μM [1] read?
Answer: 2.26 h

Question: What about the half-life at 1 μM [2] of the same compound?
Answer: 2.12 h

Question: What about the half-life at 1 μM (in vitro) of the same compound?
Answer: > 2.42 h

Question: What about the half-life at 1 μM [3] of the same compound?
Answer: 1.11 h

Question: For `CN(C(=O)c1ccc2nc(N)c3cncn3c2c1)C1COc2cc(C(F)(F)F)ccc21` (stereo not drawn) [Compound 17], which IC50 (CYP2C19) is on record?
Answer: 15.1 µM

Question: And the “CLint (liver) R” value [4]?
Answer: 49.8 mL/min/kg

Question: And the “CLint (hep) R” value ([4]; rat)?
Answer: 10.6 μL/min/10^6

Question: And the “T1/2 (hepatocytes) R” value ([4]; rat)?
Answer: 2.172 h

Question: And the “T1/2 of LMS, M” value [5]?
Answer: 1.61 h

Question: And the “CLint (liver) C” value [6]?
Answer: 62.0 mL/min/kg

Question: What about the “CLint (hep) C” value ([6]; cynomolgus monkey) of the same compound?
Answer: 17.2 μL/min/10^6

Question: And the “T1/2 (hepatocytes) C” value ([6]; cynomolgus monkey)?
Answer: 1.34 h

Question: What does the source list for `CN(C(=O)c1cc2c(cn1)nc(N)c1cncn12)C1CC(F)(F)c2cc(C(F)(F)F)ccc21` (stereo not drawn) [Compound 24]?
Answer: CLint (mic) H ([7]; human liver microsome): <9.6 µL/min/mg; T1/2 of LMS, H ([7]; human liver microsome 0.5 mg protein/mL, 1 μM, NADPH): >2.42 h; CLint (liver) H ([7]; human liver microsome, scaled to liver): <8.6 mL/min/kg
